From ChEMBL document CHEMBL1141681, “Bradykinin B1 receptor antagonists: an alpha-hydroxy amide with an improved metabolism profile” (Bioorg Med Chem Lett, 2008)

Assays:
[1] = Clearance in mongrel dog at 3 mg/kg, po and 1 mg/kg, iv; format: ADME, organism-based, Canis lupus familiaris; settings: in vivo
MDR1 (human) = experiment: (§1) Apparent permeability across pig L-MDR1 cells overexpressing human MDR1 at 5 uM after 3 hrs by LC/MS/MS analysis; format: ADME, cell-based, Sus scrofa; settings: LLC-PK1
[2] = (§2) Half life in mongrel dog at 3 mg/kg, po and 1 mg/kg, iv; format: ADME, organism-based, Canis lupus familiaris; settings: mongrel, in vivo
B1 bradykinin receptor = molecular target: T1, B1 bradykinin receptor (Homo sapiens, UniProt P46663); experiment: Displacement of [3H]des-arg10leu9kallidin from human bradykinin B1 receptor expressed in CHO cells by Wallac beta-plate scintillation counting; format: cell-based
T1 sequence (P46663 whole entry): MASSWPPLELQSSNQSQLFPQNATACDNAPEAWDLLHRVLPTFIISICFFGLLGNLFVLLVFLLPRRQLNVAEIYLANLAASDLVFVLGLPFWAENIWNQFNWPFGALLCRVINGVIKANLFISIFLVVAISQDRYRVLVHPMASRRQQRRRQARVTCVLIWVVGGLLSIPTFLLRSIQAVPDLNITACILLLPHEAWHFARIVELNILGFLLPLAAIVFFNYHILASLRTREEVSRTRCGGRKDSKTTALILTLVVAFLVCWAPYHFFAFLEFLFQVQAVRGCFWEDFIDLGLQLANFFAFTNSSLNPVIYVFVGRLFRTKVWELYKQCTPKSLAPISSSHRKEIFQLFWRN

[3] = Ratio of permeability from basolateral to apical side to apical to basolateral side in pig L-MDR1 cells overexpressing human MDR1 at 5 uM after 3 hrs by LC/MS/MS analysis; format: ADME, cell-based, Sus scrofa; settings: l-mdr1, 3 h
Rattus norvegicus = experiment: Ex vivo displacement of [35S]N-{2-[4-(4,5-dihydro-1H-imidazol-2-yl)phenyl]ethyl}-2-[(2R)-1-(2-naphthylsulfonyl)-3-oxo-1,2,3,4-tetrahydroquinoxalin-2-yl]acetamide from human bradykinin B1 receptor expressed in iv dosed Sprague-Dawley rat brain by liquid scintillation counting; format: functional, organism-based
[4] = Clearance in Sprague-Dawley rat at 10 mg/kg, po and 2 mg/kg, iv; format: ADME, organism-based; settings: in vivo
[5] = Ratio of drug level in brain to plasma of african green monkey at 2 mg/kg, iv after 30 mins by LC/MS/MS analysis; format: ADME, organism-based; design: dose 2 mg/kg, route intravenous; settings: chlorocebus aethiops, brain and plasma
[6] = Half life in Sprague-Dawley rat at 10 mg/kg, po and 2 mg/kg, iv; format: ADME, organism-based; settings: in vivo
[7] = Oral bioavailability in Sprague-Dawley rat at 10 mg/kg; format: ADME, organism-based; settings: in vivo
[8] = Oral bioavailability in mongrel dog at 3 mg/kg; format: ADME, organism-based, Canis lupus familiaris; settings: in vivo
Canis familiaris = experiment: as §2; format: ADME, organism-based, Canis lupus familiaris; settings: in vivo
[9] = as §1; format: ADME, cell-based, Sus scrofa; settings: l-mdr1, 3 h, 5 µM, 3 h

Structure (SMILES) | clearance [1] [mL/min/kg] | Papp at 3 h, 5 µM (MDR1 (human)) [×10⁻⁶ cm/s] | half-life [2] [h] | Ki (B1 bradykinin receptor) [nM] | Ratio [3] | Ki (Rattus norvegicus) [nM] | clearance [4] [mL/min/kg] | Kp at 0.5 h [5] | half-life [6] [h] | bioavailability [7] [%] | bioavailability [8] [%] | t1/2 (Canis familiaris) [h] | Ratio ([3]; 3 h) | Papp [9] [×10⁻⁶ cm/s]
Cc1nc(-c2c(F)cc(Cl)cc2-c2cnc([C@@H](C)NC(=O)[C@@](C)(O)C(F)(F)F)c(F)c2)no1 | 0.5 | 27 |  |  |  |  |  |  |  |  |  |  |  | 
C[C@@H](NC(=O)C1(O)CCS(=O)(=O)C1)c1ncc(-c2cc(Cl)cc(F)c2-c2nnn(C)n2)cc1F (stereo partly specified) | 0.5 | 22 | 9.9 | 0.69 | 29 |  |  |  |  |  |  |  |  | 
C[C@@H](NC(=O)C1(O)CCOCC1)c1ncc(-c2cc(Cl)cc(F)c2-c2nnn(C)n2)cc1F |  | 24 |  | 0.96 | 8.2 |  |  |  |  |  |  |  |  | 
C[C@@H](NC(=O)C1(O)CCC(=O)C1)c1ncc(-c2cc(Cl)cc(F)c2-c2nnn(C)n2)cc1F (stereo partly specified) | 0.3 | 31 | 9.8 | 0.67 | 16 |  |  |  |  |  |  |  |  | 
C[C@@H](NC(=O)[C@@](C)(O)C(F)(F)F)c1ncc(-c2cc(Cl)cc(F)c2-c2noc(CO)n2)cc1F |  |  |  | 0.8 |  |  |  |  |  |  |  |  |  | 
C[C@@H](NC(=O)C1(O)CCSC1)c1ncc(-c2cc(Cl)cc(F)c2-c2nnn(C)n2)cc1F (stereo partly specified) | 3.2 | 31 | 5.4 | 0.39 | 2.9 |  |  |  |  |  |  |  |  | 
C[C@@H](NC(=O)C1(O)CC[S+]([O-])C1)c1ncc(-c2cc(Cl)cc(F)c2-c2nnn(C)n2)cc1F (stereo partly specified) | 2.3 | 24 | 3.1 | 1.6 | 14.3 |  |  |  |  |  |  |  |  | 

Continued, values first:

clearance [1] [mL/min/kg] | Papp at 3 h, 5 µM (MDR1 (human)) [×10⁻⁶ cm/s] | half-life [2] [h] | Ki (B1 bradykinin receptor) [nM] | Ratio [3] | Ki (Rattus norvegicus) [nM] | clearance [4] [mL/min/kg] | Kp at 0.5 h [5] | half-life [6] [h] | bioavailability [7] [%] | bioavailability [8] [%] | t1/2 (Canis familiaris) [h] | Ratio ([3]; 3 h) | Papp [9] [×10⁻⁶ cm/s] | Structure (SMILES)
1 | 31 | 20.3 | 0.41 | 2 | 140 | 2.2 | 0.63 | 5.6 | 62 | 91 |  |  |  | C[C@@H](NC(=O)C1(O)CCC(F)(F)CC1)c1ncc(-c2cc(Cl)cc(F)c2-c2nnn(C)n2)cc1F
0.6 | 29 | 4.7 | 0.48 | 2.1 | 214 | 10 |  | 5.5 | 26 |  |  |  |  | C[C@@H](NC(=O)C1(O)CCCC1)c1ncc(-c2cc(Cl)cc(F)c2-c2nnn(C)n2)cc1F
0.3 | 29 |  | 1 |  |  |  |  |  |  |  | 3 | 2.6 |  | CC(NC(=O)C1(O)CCC(F)(F)C1)c1ncc(-c2cc(Cl)cc(F)c2-c2nnn(C)n2)cc1F (stereo in doubt; 11f)
 |  |  | 0.67 |  | 120 | 5.2 | 0.55 | 4.1 | 96 | 85 | 19 | 1.9 | 32 | CC(NC(=O)C1(O)CCC(F)(F)C1)c1ncc(-c2cc(Cl)cc(F)c2-c2nnn(C)n2)cc1F (stereo in doubt; 11g)
